This is an account of results in ChEMBL document CHEMBL1125650, “Relationships between the structure of taxol analogues and their antimitotic activity” (J Med Chem, 1991).

≈ marks a conversion by molar mass, not a printed value.

Experiment [1] deals with P388. The experiment in a line: The concentration required to 50% inhibition of the P388 leukemic cell proliferation. Format: functional, cell-based. The note with it: Mus musculus.
Experiment [2] is described as follows: Cytotoxicity was measured as ratio of its IC50 value to that of compound 13a. Format: functional.
Experiment [3] is filed under the species Sus scrofa. The experiment in a line: Ratio of the concentration leading to a 50% inhibition of the rate of pig brain microtubule disassembly to that of taxol (0.4 uM) was determined. Format: functional.
A short description of experiment [4]: Ratio of the concentration of compound leading to a 50% inhibition of the rate of pig brain microtubule disassembly to that of compound 13a was determined. Format: functional.

On to `CC(=O)O[C@@]12CO[C@@H]1C[C@H](OC(=O)CN)[C@@]1(C)C(=O)[C@H](OC(=O)CN)C3=C(C)[C@@H](OC(=O)C(O)C(NC(=O)OC(C)(C)C)c4ccccc4)C[C@@](O)([C@@H](OC(=O)c4ccccc4)[C@H]21)C3(C)C` (stereo partly drawn), for which inhibition in experiment [1] was half-maximal at 0.19 µg/mL (≈ 0.206 µM) (IC50). The values for the Ratio in experiment [2], in experiment [3] and in experiment [4] were 1.5, 1.2 and 1.4, respectively.

Take `CC(=O)O[C@@]12CO[C@@H]1C[C@H](OC(=O)C(N)Cc1ccccc1)[C@@]1(C)C(=O)[C@H](O)C3=C(C)[C@@H](OC(=O)C(O)C(NC(=O)OC(C)(C)C)c4ccccc4)C[C@@](O)([C@@H](OC(=O)c4ccccc4)[C@H]21)C3(C)C` (stereo partly drawn): in experiment [1], 0.12 µg/mL (≈ 0.126 µM) corresponded to half-maximal inhibition (IC50). The Ratio in experiment [2] was determined as 1; in experiment [3], 1; in experiment [4], 2. As for `CC(=O)O[C@@]12CO[C@@H]1C[C@H](O)[C@@]1(C)C(=O)[C@H](O)C3=C(C)[C@@H](OC(=O)C(O)C(NC(=O)c4ccccc4)c4ccccc4)C[C@@](O)([C@@H](OC(=O)c4ccccc4)[C@H]21)C3(C)C` (stereo partly drawn), the Ratio in experiment [3] is recorded as 1.3. In experiment [1], `CC(=O)O[C@H]1C(=O)[C@@]2(C)[C@H]([C@H](OC(=O)c3ccccc3)[C@]3(O)C[C@H](OC(=O)[C@H](NC(=O)c4ccccc4)[C@@H](O)c4ccccc4)C(C)=C1C3(C)C)[C@]1(OC(C)=O)CO[C@@H]1C[C@@H]2O` yielded an IC50 of 6 µg/mL (≈ 7.03 µM). Besides, the figures for the Ratio in experiment [2], in experiment [3] and in experiment [4] were 46, 10 and 20, respectively. `CC(=O)O[C@H]1C(=O)[C@@]2(C)[C@H]([C@H](OC(=O)c3ccccc3)[C@]3(O)C[C@H](OC(=O)[C@H](O)[C@@H](NC(=O)c4ccccc4)c4ccccc4)C(C)=C1C3(C)C)[C@]1(OC(C)=O)CO[C@@H]1C[C@@H]2O` [PACLITAXEL]: the midpoint of inhibition in experiment [1], the IC50, lay at 0.27 µg/mL (≈ 0.316 µM). In addition, the Ratio in experiment [4] was 2. As to `CC(=O)O[C@H]1C(=O)[C@@]2(C)[C@H]([C@H](OC(=O)c3ccccc3)[C@]3(O)C[C@H](OC(=O)C(NC(=O)OC(C)(C)C)C(O)c4ccccc4)C(C)=C1C3(C)C)[C@]1(OC(C)=O)CO[C@@H]1C[C@@H]2O` (stereo in doubt; 16c), the Ratio in experiment [3] was determined as 10.

As for `C/C=C/C(=O)O[C@H]1C[C@@]2(O)[C@@H](OC(=O)c3ccccc3)[C@@H]3[C@]4(OC(C)=O)CO[C@@H]4C[C@H](O)[C@@]3(C)C(=O)[C@H](OC(C)=O)C(=C1C)C2(C)C`, in experiment [3], the Ratio is 100. With `CC(=O)O[C@@]12CO[C@@H]1C[C@H](O)[C@@]1(C)C(=O)[C@H](O)C3=C(C)[C@@H](OC(=O)CCc4ccccc4)C[C@@](O)([C@@H](OC(=O)c4ccccc4)[C@H]21)C3(C)C`, the Ratio in experiment [3] is reported as 17. For `CC(=O)O[C@@]12CO[C@@H]1C[C@H](O)[C@@]1(C)C(=O)[C@H](O)C3=C(C)[C@@H](OC(=O)C(O)C(NC(=O)CCCC(=O)O)c4ccccc4)C[C@@](O)([C@@H](OC(=O)c4ccccc4)[C@H]21)C3(C)C` (stereo partly drawn), the Ratio in experiment [3] is 1.

Turning to `CC(=O)O[C@@]12CO[C@@H]1C[C@H](O)[C@@]1(C)C(=O)[C@H](O)C3=C(C)[C@@H](OC(=O)[C@H](O)[C@@H](NS(=O)(=O)c4ccc(C)cc4)c4ccccc4)C[C@@](O)([C@@H](OC(=O)c4ccccc4)[C@H]21)C3(C)C`, the Ratio in experiment [3] came out at 5. The same measure, in the same setting: the same measure for `CC(=O)O[C@@]12CO[C@@H]1C[C@H](O)[C@@]1(C)C(=O)[C@H](O)C3=C(C)[C@@H](OC(=O)C(NC(=O)c4ccccc4)C(O)c4ccccc4)C[C@@](O)([C@@H](OC(=O)c4ccccc4)[C@H]21)C3(C)C` (stereo in doubt; 14c): 10; for `CC(=O)O[C@H]1C(=O)[C@@]2(C)[C@H]([C@H](OC(=O)c3ccccc3)[C@]3(O)C[C@H](OC(=O)C(NC(=O)OC(C)(C)C)C(O)c4ccccc4)C(C)=C1C3(C)C)[C@]1(OC(C)=O)CO[C@@H]1C[C@@H]2O` (stereo in doubt; 16d): 108.

For `CC(=O)O[C@@]12CO[C@@H]1C[C@H](O)[C@@]1(C)C(=O)[C@H](O)C3=C(C)[C@@H](OC(=O)CC(NC(=O)OC(C)(C)C)c4ccccc4)C[C@@](O)([C@@H](OC(=O)c4ccccc4)[C@H]21)C3(C)C` (single isomer, unassigned; 10a), in experiment [3], the Ratio stood at 2.3. As for `CC(=O)O[C@@]12CO[C@@H]1C[C@H](O)[C@@]1(C)C(=O)[C@H](O)C3=C(C)[C@@H](OC(=O)[C@H](NC(=O)OC(C)(C)C)[C@@H](O)c4ccccc4)C[C@@](O)([C@@H](OC(=O)c4ccccc4)[C@H]21)C3(C)C`, in experiment [3], the Ratio is given as 160.

Regarding `CC(=O)O[C@@]12CO[C@@H]1C[C@H](O)[C@@]1(C)C(=O)[C@H](O)C3=C(C)[C@@H](OC(=O)C(O)Cc4ccccc4)C[C@@](O)([C@@H](OC(=O)c4ccccc4)[C@H]21)C3(C)C` (stereo partly drawn), the Ratio in experiment [3] is 4.5. On to `CC(=O)O[C@@]12CO[C@@H]1C[C@H](O)[C@@]1(C)C(=O)[C@H](O)C3=C(C)[C@@H](OC(=O)CC(NC(=O)OC(C)(C)C)c4ccccc4)C[C@@](O)([C@@H](OC(=O)c4ccccc4)[C@H]21)C3(C)C` (single isomer, unassigned; 10b), for which the Ratio in experiment [3] is 4.1.

For the compound `CC(=O)O[C@@]12CO[C@@H]1C[C@H](O)[C@@]1(C)C(=O)[C@H](O)C3=C(C)[C@@H](OC(=O)C(O)C(NC(=O)OC(C)(C)C)c4ccccc4)C[C@@](O)([C@@H](OC(=O)c4ccccc4)[C@H]21)C3(C)C` (stereo in doubt; 13e), the Ratio in experiment [3] came out at 1.8.

In the case of `CC(=O)O[C@@]12CO[C@@H]1C[C@H](O)[C@@]1(C)C(=O)[C@H](O)C3=C(C)[C@@H](OC(=O)[C@@H](O)Cc4ccccc4)C[C@@](O)([C@@H](OC(=O)c4ccccc4)[C@H]21)C3(C)C`, in experiment [3], the Ratio came out at 3.5. With `CC(=O)O[C@H]1C(=O)[C@@]2(C)[C@H]([C@H](OC(=O)c3ccccc3)[C@]3(O)C[C@H](OC(=O)[C@@H](O)[C@H](NC(=O)OC(C)(C)C)c4ccccc4)C(C)=C1C3(C)C)[C@]1(OC(C)=O)CO[C@@H]1C[C@@H]2O`, the Ratio in experiment [3] was found to be 30. In the case of `CC(=O)O[C@H]1C(=O)[C@@]2(C)[C@H]([C@H](OC(=O)c3ccccc3)[C@]3(O)C[C@H](OC(=O)C(O)C(N)c4ccccc4)C(C)=C1C3(C)C)[C@]1(OC(C)=O)CO[C@@H]1C[C@@H]2O` (stereo partly drawn), the Ratio in experiment [3] is 44. Regarding `CC(=O)O[C@@]12CO[C@@H]1C[C@H](O)[C@@]1(C)C(=O)[C@H](O)C3=C(C)[C@@H](OC(=O)C(NC(=O)c4ccccc4)C(O)c4ccccc4)C[C@@](O)([C@@H](OC(=O)c4ccccc4)[C@H]21)C3(C)C` (stereo in doubt; 14d), in experiment [3], the Ratio is reported as 170. For `CC(=O)O[C@@]12CO[C@@H]1C[C@H](O)[C@@]1(C)C(=O)[C@H](O)C3=C(C)[C@@H](OC(=O)C(O)C(NC(=O)OC(C)(C)C)c4ccccc4)C[C@@](O)([C@@H](OC(=O)c4ccccc4)[C@H]21)C3(C)C` (stereo in doubt; 13f), in experiment [3], the Ratio was determined as 4.3. On to `CC(=O)O[C@@]12CO[C@@H]1C[C@H](O)[C@@]1(C)C(=O)[C@H](O)C3=C(C)[C@@H](OC(=O)[C@@H](O)[C@H](NC(=O)c4ccccc4)c4ccccc4)C[C@@](O)([C@@H](OC(=O)c4ccccc4)[C@H]21)C3(C)C`, for which the Ratio in experiment [3] was determined as 4. On to `CC(=O)O[C@@]12CO[C@@H]1C[C@H](OC(=O)CCCC(=O)O)[C@@]1(C)C(=O)[C@H](OC(=O)CCCC(=O)O)C3=C(C)[C@@H](OC(=O)C(O)C(NC(=O)OC(C)(C)C)c4ccccc4)C[C@@](O)([C@@H](OC(=O)c4ccccc4)[C@H]21)C3(C)C` (stereo partly drawn), for which, in experiment [3], the Ratio is recorded as 2. The same measure, in the same setting: the same measure for `CC(=O)O[C@H]1C(=O)[C@@]2(C)[C@H]([C@H](OC(=O)c3ccccc3)[C@]3(O)C[C@H](OC(=O)C(O)C(C)O)C(C)=C1C3(C)C)[C@]1(OC(C)=O)CO[C@@H]1C[C@@H]2O` (stereo partly drawn): 60. For the compound `CC(=O)O[C@H]1C(=O)[C@]2(C)[C@@H](OC(=O)CCCC(=O)O)C[C@H]3OC[C@@]3(OC(C)=O)[C@H]2[C@H](OC(=O)c2ccccc2)[C@]2(O)C[C@H](OC(=O)C(O)C(NC(=O)c3ccccc3)c3ccccc3)C(C)=C1C2(C)C` (stereo partly drawn), in experiment [3], the Ratio came out at 1.

For `CC(=O)O[C@@]12CO[C@@H]1C[C@H](O)[C@@]1(C)C(=O)[C@H](O)C3=C(C)[C@@H](OC(=O)C(O)C(N)c4ccccc4)C[C@@](O)([C@@H](OC(=O)c4ccccc4)[C@H]21)C3(C)C` (stereo partly drawn), in experiment [3], the Ratio came to 30. As for `CC(=O)O[C@@]12CO[C@@H]1C[C@H](O)[C@@]1(C)C(=O)[C@H](O)C3=C(C)[C@@H](OC(=O)C(NS(=O)(=O)c4ccc(C)cc4)C(O)c4ccccc4)C[C@@](O)([C@@H](OC(=O)c4ccccc4)[C@H]21)C3(C)C` (stereo partly drawn), the Ratio in experiment [3] was found to be 15. Consider `CC(=O)O[C@@]12CO[C@@H]1C[C@H](O)[C@@]1(C)C(=O)[C@H](O)C3=C(C)[C@@H](OC(=O)/C=C/c4ccccc4)C[C@@](O)([C@@H](OC(=O)c4ccccc4)[C@H]21)C3(C)C`, for which the Ratio in experiment [3] was 23. Take `CC(=O)O[C@@]12CO[C@@H]1C[C@H](O)[C@@]1(C)C(=O)[C@H](O)C3=C(C)[C@@H](OC(=O)C(O)C(O)c4ccccc4)C[C@@](O)([C@@H](OC(=O)c4ccccc4)[C@H]21)C3(C)C` (stereo partly drawn): the Ratio in experiment [3] is reported as 3. Turning to `CC(=O)O[C@@]12CO[C@@H]1C[C@H](O)[C@@]1(C)C(=O)[C@H](O)C3=C(C)[C@@H](OC(=O)[C@H](O)[C@@H](NC(=O)c4ccccc4)c4ccccc4)C[C@@](O)([C@@H](OC(=O)c4ccccc4)[C@H]21)C3(C)C`, the Ratio in experiment [3] was found to be 1.3.

Turning to `CC(=O)O[C@H]1C(=O)[C@@]2(C)[C@H]([C@H](OC(=O)c3ccccc3)[C@]3(O)C[C@H](OC(=O)[C@@H](NC(=O)c4ccccc4)[C@H](O)c4ccccc4)C(C)=C1C3(C)C)[C@]1(OC(C)=O)CO[C@@H]1C[C@@H]2O`, the Ratio in experiment [3] was found to be 110. Regarding `CC(=O)O[C@@]12CO[C@@H]1C[C@H](OC(=O)OCC(Cl)(Cl)Cl)[C@@]1(C)C(=O)[C@H](OC(=O)OCC(Cl)(Cl)Cl)C3=C(C)[C@@H](OC(=O)/C=C/c4ccccc4)C[C@@](O)([C@@H](OC(=O)c4ccccc4)[C@H]21)C3(C)C`, the Ratio in experiment [3] was 1000.
